Calls of active or inactive are those of the source. The calls are words filed in the database; no cut-off is given here.
Each compound was assayed on Escherichia coli (assay: Antibacterial activity against Escherichia coli JM109 at 1 mg/mL).
Type: functional, organism-based
In the case of `CCCCCCCCc1cn([C@@H]2O[C@H](CO)[C@@H](O)[C@@H]2O)nn1`, the Activity is reported as “inactive”.
In the case of `OC[C@H]1O[C@@H](n2cc(-c3ccccc3)nn2)[C@@H](O)[C@@H]1O`, the Activity is reported as “inactive”.
In the case of `CCCCCCc1cn([C@@H]2O[C@H](CO)[C@@H](O)[C@@H]2O)nn1`, the Activity is reported as “inactive”.
With `CCCCCCCCCCc1cn([C@@H]2O[C@H](CO)[C@@H](O)[C@@H]2O)nn1` the Activity was “inactive”.
For `CC(C)=CCC/C(C)=C/CC/C(C)=C/COCc1cn([C@@H]2O[C@H](CO)[C@@H](O)[C@@H]2O)nn1`, the Activity was “inactive”.
In the case of `CCCCCCCCCCCCCCOCc1cn([C@@H]2O[C@H](CO)[C@@H](O)[C@@H]2O)nn1`, the Activity is reported as “inactive”.
